In patent US11459335B2, “N/O-linked Degrons and Degronimers for protein degradation” (C4 Therapeutics, Inc., priority 2017, dated 2022):
pKd: −log10 of the molar value.

Biological target: CRBN-DDB1 (Homo sapiens (Human), UniProt Q96SW2)
Experiment: Fluorescence polarization (FP) assay for compound ligand binding to CRBN-DDB1
Conditions: FP displacement of (−)-Thalidomide-Alexa Fluor or Pomalidomide-fluorescein probe (5 nM), 400 nM CRBN-DDB1, 60 min room temperature; Additional Compounds of the Present Invention
Method: Measuring compound ligand binding to CRBN-DDB1 was carried out using an established sensitive and quantitative in vitro fluorescence polarization (FP) based binding assay. […] Compounds were dispensed from serially diluted DMSO stock into black 384-well compatible fluorescence polarization plates using an Echo acoustic dispenser. Compound binding to CRBN-DDB1 was measured by displacement of either a (−)-Thalidomide-Alexa Fluor® or Pornalidomide-fluorescein conjugated probe dye. […] Matching control wells excluding CRBN-DDB1 were used to correct for background fluorescence. Plates were read on an Envision plate reader with appropriate FP filter sets. The corrected S (perpendicular) and P (parallel) values were used to calculate fluorescence polarization (FP) with the following equation: FP=1000*(S−G*P)/(S+G*P).

Sequence of CRBN-DDB1 (Q96SW2 whole entry): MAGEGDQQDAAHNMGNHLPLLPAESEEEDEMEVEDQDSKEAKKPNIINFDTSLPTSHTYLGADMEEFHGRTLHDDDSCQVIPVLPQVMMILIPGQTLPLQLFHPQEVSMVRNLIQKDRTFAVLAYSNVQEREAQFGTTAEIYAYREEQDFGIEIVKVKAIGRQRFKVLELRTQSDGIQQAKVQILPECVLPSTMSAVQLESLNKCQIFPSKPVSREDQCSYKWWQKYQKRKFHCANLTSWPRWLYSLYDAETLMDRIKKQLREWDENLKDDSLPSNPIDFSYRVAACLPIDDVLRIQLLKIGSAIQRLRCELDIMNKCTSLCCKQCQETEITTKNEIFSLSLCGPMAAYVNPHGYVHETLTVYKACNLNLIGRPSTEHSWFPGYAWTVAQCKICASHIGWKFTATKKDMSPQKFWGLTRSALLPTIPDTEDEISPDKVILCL
Sequence of CRBN-DDB1 (Q16531 whole entry partner): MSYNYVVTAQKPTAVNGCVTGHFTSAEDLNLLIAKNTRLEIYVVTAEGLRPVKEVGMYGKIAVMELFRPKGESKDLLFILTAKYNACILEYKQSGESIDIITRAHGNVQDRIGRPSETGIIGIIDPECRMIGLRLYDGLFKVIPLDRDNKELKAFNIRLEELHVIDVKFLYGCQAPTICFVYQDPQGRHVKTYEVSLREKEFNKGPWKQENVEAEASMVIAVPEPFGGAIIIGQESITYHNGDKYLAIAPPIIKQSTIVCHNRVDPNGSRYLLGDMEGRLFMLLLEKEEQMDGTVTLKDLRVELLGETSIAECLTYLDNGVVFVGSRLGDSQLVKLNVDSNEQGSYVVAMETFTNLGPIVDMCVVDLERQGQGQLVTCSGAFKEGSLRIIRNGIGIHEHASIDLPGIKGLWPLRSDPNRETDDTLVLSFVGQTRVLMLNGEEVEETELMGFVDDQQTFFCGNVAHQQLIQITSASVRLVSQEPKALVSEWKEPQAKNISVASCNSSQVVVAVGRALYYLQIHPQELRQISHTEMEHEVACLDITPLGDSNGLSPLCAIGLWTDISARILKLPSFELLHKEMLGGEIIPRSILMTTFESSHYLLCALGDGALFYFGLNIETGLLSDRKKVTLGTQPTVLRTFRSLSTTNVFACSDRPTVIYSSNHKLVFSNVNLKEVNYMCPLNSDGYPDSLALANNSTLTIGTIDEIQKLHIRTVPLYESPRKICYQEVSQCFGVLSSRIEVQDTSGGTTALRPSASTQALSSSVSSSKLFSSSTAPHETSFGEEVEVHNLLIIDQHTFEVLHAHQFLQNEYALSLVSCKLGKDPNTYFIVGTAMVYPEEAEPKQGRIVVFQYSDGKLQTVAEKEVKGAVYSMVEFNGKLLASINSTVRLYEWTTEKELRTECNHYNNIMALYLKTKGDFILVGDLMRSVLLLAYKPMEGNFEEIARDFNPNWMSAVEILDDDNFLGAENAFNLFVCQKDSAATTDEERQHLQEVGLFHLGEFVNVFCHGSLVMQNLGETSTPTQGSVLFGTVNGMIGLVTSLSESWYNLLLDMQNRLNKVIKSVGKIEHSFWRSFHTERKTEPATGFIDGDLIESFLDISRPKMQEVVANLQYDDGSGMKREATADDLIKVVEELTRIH

Row | SMILES | pKd
1 | O=C1CC[C@@H](O[C@H]2CCN(c3ccccc3)C2=O)C(=O)N1 (single isomer, unassigned) [Compound 161, 3-(2-Oxo-1-phenyl-pyrrolidin-3-yloxy)-piperidine-2,6-dione] | 4.00 to 4.30
2 | O=C1CC[C@H](O[C@H]2CCN(c3ccccc3)C2=O)C(=O)N1 (single isomer, unassigned) [Compound 162, 3-(2-Oxo-1-phenyl-pyrrolidin-3-yloxy)-piperidine-2,6-dione] | 4.30 to 5.00
3 | O=C1CCC(Oc2ccccc2)C(=O)N1 (stereo not drawn) [Compound 129] | 4.30 to 5.00
4 | CC(C)(C)OC(=O)N1CCN(c2ccc(COC3CCC(=O)NC3=O)cc2)CC1 (stereo not drawn) [Compound 131, 4-[4-(2,6-Dioxo-piperidin-3-yloxymethyl)-phenyl]-piperazine-1-carboxylic Acid tert-butyl Ester] | 4.30 to 5.00
5 | Cn1cnc2cc(OC3CCC(=O)NC3=O)ccc21 (stereo not drawn) [Compound 142] | 4.30 to 5.00
6 | CS(=O)(=O)c1cccc(OC2CCC(=O)NC2=O)c1 (stereo not drawn) [Compound 144] | 4.30 to 5.00
7 | CC(=O)c1cc(C)ccc1OC1CCC(=O)NC1=O (stereo not drawn) [Compound 146] | 4.00 to 4.30
8 | COC(=O)c1ccccc1OC1CCC(=O)NC1=O (stereo not drawn) [Compound 155] | 4.00 to 4.30
9 | CC(C)(C)OC(=O)N1CCN(c2ccc(NC3CCC(=O)NC3=O)cn2)CC1 (stereo not drawn) [Compound 156, 4-[5-(2,6-Dioxo-piperidin-3-ylamino)-pyridin-2-yl]-piperazine-1-carboxylic Acid tert-butyl Ester] | 4.30 to 5.00
10 | Cn1nc(NC2CCC(=O)NC2=O)cc1-c1ccccc1 (stereo not drawn) [Compound 157, 3-(1-Methyl-5-phenyl-1H-pyrazol-3-ylamino)-piperidine-2,6-dione] | 4.30 to 5.00
11 | O=C1CCC(Nc2ccc(N3CCNCC3)nc2)C(=O)N1 (stereo not drawn) [Compound 158, 3-(6-Piperazin-1-yl-pyridin-3-ylamino)-piperidine-2,6-dione] | 4.30 to 5.00
12 | O=C1CCC(Nc2ccc3cccnc3c2)C(=O)N1 (stereo not drawn) [Compound 163] | 4.30 to 5.00

The next lines start with the values.

Row | pKd | SMILES
13 | 4.30 to 5.00 | CN1CCN(c2ccc(OC3CCC(=O)NC3=O)cc2)CC1 (stereo not drawn) [Compound 130]
14 | 4.30 to 5.00 | Cc1ccn(-c2ccc(OC3CCC(=O)NC3=O)cc2)n1 (stereo not drawn) [Compound 143]
15 | 4.00 to 4.30 | CC(=O)c1ccccc1OC1CCC(=O)NC1=O (stereo not drawn) [Compound 153]

Same assay, conditions: FP displacement of (−)-Thalidomide-Alexa Fluor or Pomalidomide-fluorescein probe (5 nM), 400 nM CRBN-DDB1, 60 min room temperature; Degrons, Compounds of the Present Invention

Row | SMILES | pKd
16 | O=C1CCC(Nc2ccc(F)cc2)C(=O)N1 (stereo not drawn) [Compound 8] | 4.30 to 5.00
17 | O=C1CCC(Nc2ccccc2N2CCOCC2)C(=O)N1 (stereo not drawn) [Compound 14] | 4.30 to 5.00
18 | CN(c1ccc(F)cc1)C1CCC(=O)NC1=O (stereo not drawn) [Compound 17] | 4.30 to 5.00
19 | O=C1CCC(Nc2ccccc2OC(F)(F)F)C(=O)N1 (stereo not drawn) [Compound 21] | 4.30 to 5.00
20 | COc1ccc(C(F)(F)F)cc1NC1CCC(=O)NC1=O (stereo not drawn) [Compound 24] | 4.30 to 5.00
21 | O=C1CCC(Nc2c(F)cccc2F)C(=O)N1 (stereo not drawn) [Compound 63] | 4.30 to 5.00
22 | COc1ccc(N(C)C2CCC(=O)NC2=O)c(OC)c1 (stereo not drawn) [Compound 69] | 4.30 to 5.00
23 | O=C1CCC(Nc2cccc(CN3CCCCC3)c2)C(=O)N1 (stereo not drawn) [Compound 72] | 4.30 to 5.00
24 | CC(C)(C)OC(=O)N1CCC(n2cc(NC3CCC(=O)NC3=O)cn2)CC1 (stereo not drawn) [Compound 73] | 4.00 to 4.30
25 | O=C1CCC(Nc2ccc3c(c2)CCNC3)C(=O)N1 (stereo not drawn) [Compound 83] | 4.30 to 5.00
26 | O=C1CCC(Nc2ccc(C3CCNCC3)cn2)C(=O)N1 (stereo not drawn) [Compound 84] | 4.30 to 5.00
27 | CN(c1cccc(N2CCNCC2)c1)C1CCC(=O)NC1=O (stereo not drawn) [Compound 87] | 4.30 to 5.00
28 | O=C1CCC(Nc2ccc(N3CCNCC3)cc2)C(=O)N1 (stereo not drawn) [Compound 89] | 4.30 to 5.00
29 | NCc1ccc(NC2CCC(=O)NC2=O)cc1 (stereo not drawn) [Compound 90] | 4.30 to 5.00
30 | NCc1cccc(NC2CCC(=O)NC2=O)c1 (stereo not drawn) [Compound 91] | 4.30 to 5.00
31 | CN1Cc2ccc(NC3CCC(=O)NC3=O)cc2C1=O (stereo not drawn) [Compound 93] | 4.00 to 4.30
32 | O=C1CCC(Nc2cnn(C3CCNCC3)c2)C(=O)N1 (stereo not drawn) [Compound 94] | 4.30 to 5.00
33 | CN(C1CN(C(=O)OC(C)(C)C)C1)C1CCC(=O)NC1=O (stereo not drawn) [Compound 98] | 4.00 to 4.30
34 | CN(C1CN(c2ccccc2)C1)C1CCC(=O)NC1=O (stereo not drawn) [Compound 103] | 4.30 to 5.00
35 | CN(CC(=O)Nc1ccccc1)C1CCC(=O)NC1=O (stereo not drawn) [Compound 108] | 4.30 to 5.00
36 | COc1cc(OC)nc(NC2CCC(=O)NC2=O)n1 (stereo not drawn) [Compound 113] | 4.00 to 4.30
37 | O=C1CCC(Nc2cccnc2)C(=O)N1 (stereo not drawn) [Compound 115] | 4.30 to 5.00
38 | Cn1nc(NC2CCC(=O)NC2=O)c2ccccc21 (stereo not drawn) [Compound 116] | 4.30 to 5.00
39 | CC(C)(C)OC(=O)N1Cc2cnc(NC3CCC(=O)NC3=O)nc2C1 (stereo not drawn) [Compound 117] | 4.00 to 4.30
40 | CC(C)(C)OC(=O)N1CCN(c2nccc(NC3CCC(=O)NC3=O)n2)CC1 (stereo not drawn) [Compound 121] | 4.00 to 4.30
41 | CC(C)(C)OC(=O)N1CCC(c2ccc(NC3CCC(=O)NC3=O)nc2)CC1 (stereo not drawn) [Compound 123] | 4.30 to 5.00
42 | Cc1cnc(NC2CCC(=O)NC2=O)cn1 (stereo not drawn) [Compound 124] | 4.30 to 5.00

Now from value to molecule:

Row | pKd | SMILES
43 | 4.00 to 4.30 | CN(c1ccc(F)cc1F)C1CCC(=O)NC1=O (stereo not drawn) [Compound 2]
44 | 4.00 to 4.30 | COc1ccc(C(C)(C)C)cc1NC1CCC(=O)NC1=O (stereo not drawn) [Compound 25]
45 | 4.30 to 5.00 | O=C1CCC(Nc2ccccc2CN2CCCC2)C(=O)N1 (stereo not drawn) [Compound 71]
46 | 4.30 to 5.00 | Cn1cnc2c(NC3CCC(=O)NC3=O)cccc21 (stereo not drawn) [Compound 74]
47 | 4.30 to 5.00 | O=C1CCC(Nc2cnn(-c3ccccc3)c2)C(=O)N1 (stereo not drawn) [Compound 75]
48 | 4.30 to 5.00 | CN1CCc2ccc(NC3CCC(=O)NC3=O)cc2C1=O (stereo not drawn) [Compound 76]
49 | 4.30 to 5.00 | Cn1cnc2cc(NC3CCC(=O)NC3=O)ccc21 (stereo not drawn) [Compound 78]
50 | 4.30 to 5.00 | O=C1CCC(Nc2cccnc2)C(=O)N1 (stereo not drawn) [Compound 80]
51 | 4.00 to 4.30 | CN1CC(N(C)C2CCC(=O)NC2=O)CC1=O (stereo not drawn) [Compound 104]
52 | 4.00 to 4.30 | CN(C1CC(=O)N(c2ccccc2)C1)C1CCC(=O)NC1=O (stereo not drawn) [Compound 105]
53 | 4.30 to 5.00 | CN(CC(N)=O)C1CCC(=O)NC1=O (stereo not drawn) [Compound 110]
54 | 4.30 to 5.00 | O=C1CCC(Nc2ccn(-c3ccccc3)n2)C(=O)N1 (stereo not drawn) [Compound 114]
55 | 4.00 to 4.30 | O=C1CCC(Nc2cc(C(=O)N3CCCC3)ccn2)C(=O)N1 (stereo not drawn) [Compound 119]
56 | 4.30 to 5.00 | O=C1CCC(Nc2ccc3ccccc3n2)C(=O)N1 (stereo not drawn) [Compound 120]
57 | 4.30 to 5.00 | O=C1CCC(Nc2ccccc2)C(=O)N1 (stereo not drawn) [Compound 125]
